Source: PubChem BioAssay (NCI)
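Compound exposure: 48 hours, 5 concentrations, 96-well plates. TGI: concentration producing complete growth inhibition.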

How the values were obtained:
Test in all cases: NCI-60 cell line screen, 48 h
NCI/ADR-RES ovarian = system: NCI/ADR-RES ovarian
A549 NSCLC = system: A549 NSCLC
SK-OV-3 ovarian = system: SK-OV-3 ovarian
SN12C renal = system: SN12C renal
786-0 renal = system: 786-0 renal
HOP-62 NSCLC = system: HOP-62 NSCLC
NCI-H522 lung = system: NCI-H522 lung
OVCAR-3 ovarian = system: OVCAR-3 ovarian
HT29 colon = system: HT29 colon
COLO 205 colon = system: COLO 205 colon
SF-539 CNS = system: SF-539 CNS
NCI-H226 lung = system: NCI-H226 lung
OVCAR-8 ovarian = system: OVCAR-8 ovarian
MOLT-4 leukemia = system: MOLT-4 leukemia
SR leukemia = system: SR leukemia
NCI-H460 lung = system: NCI-H460 lung
SF-295 CNS = system: SF-295 CNS
HCT-116 colon = system: HCT-116 colon
NCI-H23 lung = system: NCI-H23 lung
SK-MEL-28 melanoma = system: SK-MEL-28 melanoma
CAKI-1 renal = system: CAKI-1 renal
BT-549 breast = system: BT-549 breast
M14 melanoma = system: M14 melanoma
U251 CNS = system: U251 CNS
IGROV1 ovarian = system: IGROV1 ovarian
HCC-2998 colon = system: HCC-2998 colon
OVCAR-5 ovarian = system: OVCAR-5 ovarian
LOX IMVI melanoma = system: LOX IMVI melanoma
SNB-19 CNS = system: SNB-19 CNS
HOP-92 NSCLC = system: HOP-92 NSCLC
T-47D breast = system: T-47D breast
PC-3 prostate = system: PC-3 prostate
MDA-N = system: MDA-N
K-562 leukemia = system: K-562 leukemia
UACC-257 melanoma = system: UACC-257 melanoma
HCT-15 colon = system: HCT-15 colon
UACC-62 melanoma = system: UACC-62 melanoma
MDA-MB-231 breast = system: MDA-MB-231 breast
DU-145 prostate = system: DU-145 prostate
RPMI-8226 leukemia = system: RPMI-8226 leukemia
ACHN renal = system: ACHN renal
MCF7 breast = system: MCF7 breast
KM12 colon = system: KM12 colon
SW-620 colon = system: SW-620 colon
OVCAR-4 ovarian = system: OVCAR-4 ovarian
EKVX NSCLC = system: EKVX NSCLC
RXF 393 renal = system: RXF 393 renal
CCRF-CEM leukemia = system: CCRF-CEM leukemia
SK-MEL-2 melanoma = system: SK-MEL-2 melanoma
MDA-MB-435 = system: MDA-MB-435
UO-31 renal = system: UO-31 renal
TK-10 renal = system: TK-10 renal
SNB-75 CNS = system: SNB-75 CNS
SF-268 CNS = system: SF-268 CNS
HS 578T breast = system: HS 578T breast
SK-MEL-5 melanoma = system: SK-MEL-5 melanoma
MALME-3M melanoma = system: MALME-3M melanoma
HL-60(TB) leukemia = system: HL-60(TB) leukemia
A498 renal = system: A498 renal

CCN(C(=O)N[C@@H](Cc1ccccc1)C(=O)N[C@@H](CC(C)C)C(=O)OC)c1ccccc1
TGI (NCI/ADR-RES ovarian): > 100 µM
TGI (A549 NSCLC): > 100 µM
TGI (SK-OV-3 ovarian): > 100 µM
TGI (SN12C renal): 43.8 µM
TGI (786-0 renal): 40.5 µM
TGI (HOP-62 NSCLC): 70.6 µM
TGI (NCI-H522 lung): 22.6 µM
TGI (OVCAR-3 ovarian): 72 µM
TGI (HT29 colon): 27.3 µM
TGI (COLO 205 colon): 32.2 µM
TGI (SF-539 CNS): 36.1 µM
TGI (NCI-H226 lung): 47.6 µM
TGI (OVCAR-8 ovarian): 36.7 µM
TGI (MOLT-4 leukemia): 44.2 µM
TGI (SR leukemia): 23.9 µM
TGI (NCI-H460 lung): 24.9 µM
TGI (SF-295 CNS): 84.3 µM
TGI (HCT-116 colon): 39.2 µM
TGI (NCI-H23 lung): 53.8 µM
TGI (SK-MEL-28 melanoma): 32.6 µM
TGI (CAKI-1 renal): 84.7 µM
TGI (BT-549 breast): > 100 µM
TGI (M14 melanoma): 21.9 µM
TGI (U251 CNS): 72.7 µM
TGI (IGROV1 ovarian): 42.2 µM
TGI (HCC-2998 colon): > 100 µM
TGI (OVCAR-5 ovarian): 66.6 µM
TGI (LOX IMVI melanoma): 30.1 µM
TGI (SNB-19 CNS): > 100 µM
TGI (HOP-92 NSCLC): 59.5 µM
TGI (T-47D breast): > 100 µM
TGI (PC-3 prostate): 97.4 µM
TGI (MDA-N): > 100 µM
TGI (K-562 leukemia): > 100 µM
TGI (UACC-257 melanoma): 54.3 µM
TGI (HCT-15 colon): 34.5 µM
TGI (UACC-62 melanoma): 36.1 µM
TGI (MDA-MB-231 breast): > 100 µM
TGI (DU-145 prostate): 31.7 µM
TGI (RPMI-8226 leukemia): 56.9 µM
TGI (ACHN renal): 51.3 µM
TGI (MCF7 breast): 62 µM
TGI (KM12 colon): > 100 µM
TGI (SW-620 colon): 75 µM
TGI (OVCAR-4 ovarian): > 100 µM
TGI (EKVX NSCLC): 58.8 µM
TGI (RXF 393 renal): 37.7 µM
TGI (CCRF-CEM leukemia): > 100 µM
TGI (SK-MEL-2 melanoma): > 100 µM
TGI (MDA-MB-435): > 100 µM
TGI (UO-31 renal): 33.3 µM
TGI (TK-10 renal): > 100 µM

CCCc1cc(=O)oc2c3c(c4c(c12)OC(C)(C)CC4)O[C@@H](C)[C@H](C)[C@H]3O
TGI (NCI/ADR-RES ovarian): 29.1 µM
TGI (A549 NSCLC): 25.7 µM
TGI (SK-OV-3 ovarian): 32.6 µM
TGI (SN12C renal): 18.9 µM
TGI (786-0 renal): 18.1 µM
TGI (SNB-75 CNS): 22.5 µM
TGI (HOP-62 NSCLC): 33.4 µM
TGI (OVCAR-3 ovarian): 32.7 µM
TGI (HT29 colon): 20.7 µM
TGI (COLO 205 colon): 28.6 µM
TGI (SF-539 CNS): 38.2 µM
TGI (NCI-H226 lung): 31.6 µM
TGI (OVCAR-8 ovarian): 29.9 µM
TGI (MOLT-4 leukemia): 13.7 µM
TGI (NCI-H460 lung): 24.2 µM
TGI (SF-295 CNS): 28.5 µM
TGI (HCT-116 colon): 22.2 µM
TGI (NCI-H23 lung): 25 µM
TGI (SK-MEL-28 melanoma): 42 µM
TGI (CAKI-1 renal): 49.7 µM
TGI (BT-549 breast): 17.9 µM
TGI (M14 melanoma): 28.3 µM
TGI (U251 CNS): 29.6 µM
TGI (SF-268 CNS): 30.3 µM
TGI (IGROV1 ovarian): 32.7 µM
TGI (HCC-2998 colon): 28.3 µM
TGI (OVCAR-5 ovarian): 26.3 µM
TGI (LOX IMVI melanoma): 30 µM
TGI (SNB-19 CNS): 30.9 µM
TGI (HOP-92 NSCLC): 26.5 µM
TGI (HS 578T breast): 37.5 µM
TGI (T-47D breast): 23.2 µM
TGI (PC-3 prostate): 15.5 µM
TGI (MDA-N): 16.4 µM
TGI (K-562 leukemia): 7.17 µM
TGI (SK-MEL-5 melanoma): 20.3 µM
TGI (UACC-257 melanoma): 17.7 µM
TGI (HCT-15 colon): 25.2 µM
TGI (UACC-62 melanoma): 21.1 µM
TGI (MDA-MB-231 breast): 11.1 µM
TGI (MALME-3M melanoma): 28 µM
TGI (DU-145 prostate): 31.8 µM
TGI (RPMI-8226 leukemia): 8.74 µM
TGI (MCF7 breast): 47.3 µM
TGI (KM12 colon): 29.9 µM
TGI (SW-620 colon): 36.8 µM
TGI (OVCAR-4 ovarian): 22.5 µM
TGI (EKVX NSCLC): 29.4 µM
TGI (RXF 393 renal): 27.1 µM
TGI (CCRF-CEM leukemia): 17.8 µM
TGI (SK-MEL-2 melanoma): 29.9 µM
TGI (MDA-MB-435): 22.1 µM
TGI (UO-31 renal): 19 µM

CN1CN(c2ccccc2)C2(CCN(Cc3csc4ccccc34)CC2)C1=O
TGI (NCI/ADR-RES ovarian): 61.1 µM
TGI (A549 NSCLC): 74 µM
TGI (SK-OV-3 ovarian): > 100 µM
TGI (SN12C renal): 30.6 µM
TGI (786-0 renal): > 100 µM
TGI (SNB-75 CNS): > 100 µM
TGI (HOP-62 NSCLC): 87.5 µM
TGI (NCI-H522 lung): 35.7 µM
TGI (OVCAR-3 ovarian): 27.4 µM
TGI (HT29 colon): 36.5 µM
TGI (COLO 205 colon): 30.2 µM
TGI (SF-539 CNS): 48.3 µM
TGI (NCI-H226 lung): > 100 µM
TGI (OVCAR-8 ovarian): 72.6 µM
TGI (MOLT-4 leukemia): 29.6 µM
TGI (SR leukemia): 23.2 µM
TGI (SF-295 CNS): 26.6 µM
TGI (HCT-116 colon): 19.2 µM
TGI (NCI-H23 lung): 80.4 µM
TGI (SK-MEL-28 melanoma): 68.7 µM
TGI (CAKI-1 renal): > 100 µM
TGI (BT-549 breast): 20.5 µM
TGI (M14 melanoma): 39.8 µM
TGI (SF-268 CNS): > 100 µM
TGI (IGROV1 ovarian): 44.7 µM
TGI (HCC-2998 colon): 42.5 µM
TGI (OVCAR-5 ovarian): 25.1 µM
TGI (LOX IMVI melanoma): 25.2 µM
TGI (SNB-19 CNS): > 100 µM
TGI (T-47D breast): 71 µM
TGI (PC-3 prostate): 43 µM
TGI (MDA-N): 32.2 µM
TGI (K-562 leukemia): > 100 µM
TGI (SK-MEL-5 melanoma): 22.4 µM
TGI (UACC-257 melanoma): 31.9 µM
TGI (HCT-15 colon): > 100 µM
TGI (UACC-62 melanoma): > 100 µM
TGI (HL-60(TB) leukemia): 32.8 µM
TGI (MALME-3M melanoma): 45.5 µM
TGI (DU-145 prostate): > 100 µM
TGI (RPMI-8226 leukemia): 7.5 µM
TGI (ACHN renal): 92.4 µM
TGI (MCF7 breast): 37.3 µM
TGI (KM12 colon): 26.8 µM
TGI (SW-620 colon): > 100 µM
TGI (EKVX NSCLC): 41.8 µM
TGI (RXF 393 renal): 35.2 µM
TGI (CCRF-CEM leukemia): > 100 µM
TGI (MDA-MB-435): 28.7 µM
TGI (UO-31 renal): 12.3 µM
TGI (TK-10 renal): 41.2 µM

CC(=O)C1(Cc2cccc3ccccc23)S(=O)(=O)OCCOS1(=O)=O
TGI (NCI/ADR-RES ovarian): 61.2 µM
TGI (SK-OV-3 ovarian): 8.9 µM
TGI (SN12C renal): 25 µM
TGI (786-0 renal): 44 µM
TGI (SNB-75 CNS): 65.4 µM
TGI (HOP-62 NSCLC): 44.8 µM
TGI (NCI-H522 lung): 47.7 µM
TGI (OVCAR-3 ovarian): 36.4 µM
TGI (HT29 colon): 37.4 µM
TGI (COLO 205 colon): 30.8 µM
TGI (SF-539 CNS): 37.8 µM
TGI (NCI-H226 lung): 35.3 µM
TGI (OVCAR-8 ovarian): 55.3 µM
TGI (MOLT-4 leukemia): > 100 µM
TGI (SR leukemia): 44 µM
TGI (NCI-H460 lung): 34 µM
TGI (A498 renal): 35.7 µM
TGI (SF-295 CNS): 20.5 µM
TGI (HCT-116 colon): 41 µM
TGI (NCI-H23 lung): 60.4 µM
TGI (SK-MEL-28 melanoma): 41.2 µM
TGI (CAKI-1 renal): 30.1 µM
TGI (BT-549 breast): 30.6 µM
TGI (M14 melanoma): 56.7 µM
TGI (U251 CNS): 31.1 µM
TGI (SF-268 CNS): 50.2 µM
TGI (IGROV1 ovarian): 15.1 µM
TGI (HCC-2998 colon): 31.6 µM
TGI (OVCAR-5 ovarian): 32.5 µM
TGI (LOX IMVI melanoma): 25.7 µM
TGI (SNB-19 CNS): 49.2 µM
TGI (HOP-92 NSCLC): 48.4 µM
TGI (T-47D breast): 43.3 µM
TGI (PC-3 prostate): 29.3 µM
TGI (MDA-N): 24.6 µM
TGI (K-562 leukemia): > 100 µM
TGI (SK-MEL-5 melanoma): 24.6 µM
TGI (UACC-257 melanoma): 16.6 µM
TGI (HCT-15 colon): 41.6 µM
TGI (UACC-62 melanoma): 31.9 µM
TGI (HL-60(TB) leukemia): 41.4 µM
TGI (MDA-MB-231 breast): 29.6 µM
TGI (MALME-3M melanoma): 33 µM
TGI (DU-145 prostate): 42.2 µM
TGI (RPMI-8226 leukemia): 47.2 µM
TGI (ACHN renal): 38 µM
TGI (MCF7 breast): 39.7 µM
TGI (KM12 colon): 28.8 µM
TGI (SW-620 colon): 39.2 µM
TGI (OVCAR-4 ovarian): 75.9 µM
TGI (EKVX NSCLC): 32.6 µM
TGI (RXF 393 renal): 26.7 µM
TGI (CCRF-CEM leukemia): > 100 µM
TGI (MDA-MB-435): 27.8 µM
TGI (UO-31 renal): 29.3 µM
TGI (TK-10 renal): 39.6 µM
